{"source": "patent US7247734B2", "about": "(Vernalis (Cambridge) Limited, priority 2001, dated 2007)", "key": {"[1]": {"system": "HT29 human colon tumour cells", "test": "96 h growth inhibition assay (SRB), HT29", "assay_type": "cell-based", "conditions": "HT29, 96 h", "procedure": "(§1) The growth inhibition assay employed was based on that described previously (Kelland et al., 1993). HCT116 and HT29 human colon tumour cells (American Tissue Culture Collection) were seeded into 96-well tissue culture plates (approximately 1600–2000 cells per well) and allowed to attach for 36 hours. Eight wells were treated with a single concentration from a range of compound concentrations and incubated for 96 hours. Cells were fixed using ice cold 10% trichloroacetic acid (TCA). Plates were then washed five times with water, air dried, and stained with 0.4% sulphorhodamine B (SRB) in 1% acetic acid for 10 minutes. The SRB stain was solubilised in 10 mM Tris-HCl and the absorbance measured at 540 nm using a Titertek Multiscan MCC/340 MKII plate reader (Flow Laboratories, IEC, Basingstoke, N.H.). The absorbance values correspond to total protein content and are used as a measure of cell growth."}, "[2]": {"system": "HSP70 and RAF-1 expression in A2780 human ovarian cancer cells", "test": "Western blotting of HSP70 and RAF-1 in A2780 cells", "assay_type": "cell-based", "conditions": "60 nM (5×IC50), various times", "procedure": "(§2) The cellular effects of HSP90 inhibitors can be measured using a number of molecular markers. As already mentioned, HSP90 inhibition leads to the depletion of several important cellular signalling proteins. […] Depletion is normally observed by 6 h, with maximum depletion occurring at 24 h. As well as RAF-1, depletion of several other HSP90 client proteins can be measured by immunoblotting e.g., CDK4, ERBB2. However, it is important to note that some of these proteins are cell line specific e.g., ERBB2 is expressed mainly in breast, thyroid, kidney and some ovarian tumour cell lines. Another very important marker of HSP90 inhibition is heat shock protein 70 (HSP70). A HSF-1 (heatshock factor 1) dependent increase in HSP70 levels has been reported by us and other groups (see, e.g., Whitesell et al., 1994; Clarke et al., 2000) and this effect can serve as a positive indicator of HSP90 inhibitor action. The immunoblotting method described is based on standard techniques but is described in detail for ease of reference.\nPrepare as required and store at −20° C. • (4) Bicinchoninic acid (BCA) protein assay reagents (PerBio Science UK, Ltd., Chester, UK). • (5) Casein blocking buffer (0.5% casein, 0.02% thimerosal, in PBS). […]\n(§3) Comments • (1) The protein bands are normally evaluated visually. […]"}, "[3]": {"system": "HCT116 human colon tumour cells", "test": "96 h growth inhibition assay (SRB), HCT116", "assay_type": "cell-based", "conditions": "HCT116, 96 h", "procedure": "as §1"}, "[4]": {"system": "HSP70 and client protein (CDK4) expression in HT29 cells", "test": "Western blotting of HSP70 and CDK4 in HT29 cells", "assay_type": "cell-based, human", "conditions": "24 hours, various concentrations", "procedure": "as §2\nPrepare as required and store at −20° C. • (4) Bicinchoninic acid (BCA) protein assay reagents (PerBio Science UK, Ltd., Chester, UK). • (5) Casein blocking buffer (0.5% casein, 0.02% thimerosal, in PBS). Store at 4° C. for up to 2 weeks. • (6) Wash buffer (phosphate buffered saline, PBS) containing 0.05% Tween 20). • (7) Tris-glycine gradient polyacrylamide precast gels (4–20%) (1 mm thick) (Novex, InVitrogen, Groningen, NL). • (8) Nitro-cellulose membrane (0.2 μm pore size) (InVitrogen, Groningen, NL). • (9) Ponceau Red stain (2% w/v in 30% TCA/30% […], Sigma Aldrich Ltd., Pool, UK). • (10) Enhanced chemiluminescence (SuperSignal) reagents (PerBio Science UK, Ltd., Chester, UK). • (11) Photographic film (Hyperfilm ECL, Amersham Pharmacia Biotech, Little Chalfont, Bucks, UK). Method\nThe following protocol was used: • (1) Lyse cells (approx 4×10^6) in 100 μl lysis buffer for 30 minutes on ice. When adding the lysis buffer, shear cells by pipetting up and down using a Gilson P200 pipette. • (2) Spin lysates for 10 min at 13,000 rpm at 4° C., retrieve supernatant and store at −70° C. • (3) Determine protein concentration using BCA protein assay reagents. • (4) Load samples of cell lysates (50 μg protein/lane) onto gel and separate proteins by SDS-polyacrylamide gel electrophoresis (SDS-PAGE) using a 4–20% Tris-glycine gel. • (5) Transfer proteins to nitrocellulose membrane using optimum conditions for the equipment available. For example, 150 mA for 2 h using the Mighty Small transfer system (Hoeffer TE22 Mini Tank Transphor Unit, Amersham Pharmacia Biotech, Little Chalfont, Bucks, UK). […]\nas §3"}}, "data": [{"smiles": "C=CCNC1=C2C[C@@H](C)C[C@H](OC)[C@H](O)[C@@H](C)/C=C(\\C)[C@H](OC(N)=O)[C@@H](OC)/C=C\\C=C(/C)C(=O)NC(=CC1=O)C2=O", "note": "[Example 17AAG, 17-allylamino-17-demethoxygeldanamycin, reference compound]", "values": [{"measurement": "IC50", "setting": "[1]", "result": 10, "unit": "nM"}, {"measurement": "HSP70 expression (immunoblot)", "setting": "[2]", "result": "induced"}, {"measurement": "RAF-1 expression (immunoblot)", "setting": "[2]", "result": "depleted"}, {"measurement": "IC50", "setting": "[3]", "result": 100, "unit": "nM"}, {"measurement": "CDK4 client protein expression (immunoblot)", "setting": "[4]", "result": "depleted"}, {"measurement": "HSP70 expression (immunoblot)", "setting": "[4]", "result": "induced"}]}]}
